Results: patent US20040254162A1, “Oxazolidinone derivatives as antimicrobials” (priority 2001, published 2004)
Converted amounts (≈) assume the structure as drawn.

Legend:
Assay in all cases: MIC, agar incorporation method
MRSA 33 = settings: agar incorporation
S. pneum AB 34 = settings: agar incorporation
Strep. pyog. ATCC 19615 = settings: agar incorporation
S. aureus ATCC 25923 = settings: agar incorporation
MRSA 562 = settings: agar incorporation; Table 1
Strep. pne. ATCC 6303 = settings: agar incorporation
MRSA 15187 = settings: agar incorporation
VRE 6A (Ent. faecium 6A) = settings: agar incorporation
Ent. faecalis ATCC 29212 = settings: agar incorporation

| SMILES | MIC MRSA 33 (MRSA 33) | MIC S. pneum AB 34 (S. pneum AB 34) | MIC S. pyogenes 19615 (Strep. pyog. ATCC 19615) | MIC S. aureus 25923 (S. aureus ATCC 25923) | MIC MRSA 562 (MRSA 562) | MIC S. pneum 6303 (Strep. pne. ATCC 6303) | MIC MRSA 15187 (MRSA 15187) | MIC VRE 6A (VRE 6A (Ent. faecium 6A)) | MIC E. faecalis 29212 (Ent. faecalis ATCC 29212) |
| --- | --- | --- | --- | --- | --- | --- | --- | --- | --- |
| CC(=O)NC[C@H]1CN(c2ccc(N3CCN(Cc4cccn4C)CC3)c(F)c2)C(=O)O1 [Compound No. 22, (S)-N[[3-[3-Fluoro-4-[N-1[4-{2-pyrrole(1-methyl)methyl}]piperazinyl]phenyl]2-oxo-5-oxazolidinyl]methyl]acetamide] | 8 µg/mL (≈ 18.6 µM) | 1 µg/mL (≈ 2.33 µM) | 1 µg/mL (≈ 2.33 µM) | 2 µg/mL (≈ 4.66 µM) | 4 µg/mL (≈ 9.31 µM) | 1 µg/mL (≈ 2.33 µM) | 8 µg/mL (≈ 18.6 µM) | 8 µg/mL (≈ 18.6 µM) | 8 µg/mL (≈ 18.6 µM) |
| CC(=O)NC[C@H]1CN(c2ccc(N3CCN(Cc4ccc(C=NO)o4)CC3)c(F)c2)C(=O)O1 [Compound No. 60, (S)-N-[[3-[3-Fluoro-4-[N-1-[4-(2-furyl-(5-aldoxime)methyl}]piperazinyl]phenyl]-2-oxo-5-oxazolidinyl]methyl]acetamide] | 2 µg/mL (≈ 4.35 µM) | 8 µg/mL (≈ 17.4 µM) | 4 µg/mL (≈ 8.71 µM) | 2 µg/mL (≈ 4.35 µM) |  | 8 µg/mL (≈ 17.4 µM) | 2 µg/mL (≈ 4.35 µM) | 16 µg/mL (≈ 34.8 µM) | 8 µg/mL (≈ 17.4 µM) |
| CC(=O)NC[C@H]1CN(c2ccc(N3CC4C(C3)C4N(C)C(=O)c3ccoc3)c(F)c2)C(=O)O1 (stereo partly drawn) [Compound No. 32, (S)-N-[[3-[3-Fluoro[4-[3-(1α,5α,6α)-6-[N-(3-furoyl)-N-methyl]amino]-3-azabicyclo-[3.1.0]hexane]phenyl]-2-oxo-5-oxazolidinyl]methyl]acetamide] | 8 µg/mL (≈ 17.5 µM) | 4 µg/mL (≈ 8.76 µM) | 1 µg/mL (≈ 2.19 µM) | 8 µg/mL (≈ 17.5 µM) |  | 4 µg/mL (≈ 8.76 µM) | 8 µg/mL (≈ 17.5 µM) | 8 µg/mL (≈ 17.5 µM) | 8 µg/mL (≈ 17.5 µM) |
| CC(=O)NC[C@H]1CN(c2ccc(N3C[C@@H]4[C@H](C3)[C@H]4N(C)C(=O)c3ccc(Br)o3)c(F)c2)C(=O)O1 [Compound No. 33, (S)-N-[[3-[3-Fluoro[4-[3-(1α,5α,6α)-6-[N-(5-bromo-2-furoyl)-N-methyl]amino]-3-azabicyclo-[3.1.0.]hexane]phenyl]-2-oxo-5-oxazolidinyl]methyl]acetamide] | 4 µg/mL (≈ 7.47 µM) | 4 µg/mL (≈ 7.47 µM) | 0.5 µg/mL (≈ 0.934 µM) | 4 µg/mL (≈ 7.47 µM) |  | 8 µg/mL (≈ 14.9 µM) | 4 µg/mL (≈ 7.47 µM) | 4 µg/mL (≈ 7.47 µM) | 4 µg/mL (≈ 7.47 µM) |
| CC(=O)NC[C@H]1CN(c2ccc(N3CCN(Cc4ccc(Br)s4)CC3)c(F)c2)C(=O)O1 [Compound No. 27] | 2 µg/mL (≈ 3.91 µM) | 0.5 µg/mL (≈ 0.978 µM) | 1 µg/mL (≈ 1.96 µM) | 2 µg/mL (≈ 3.91 µM) | 2 µg/mL (≈ 3.91 µM) | 2 µg/mL (≈ 3.91 µM) | 2 µg/mL (≈ 3.91 µM) | 4 µg/mL (≈ 7.82 µM) | 2 µg/mL (≈ 3.91 µM) |
| CC(=O)NC[C@H]1CN(c2ccc(N3CC4C(C3)C4N(C)Cc3ccc(C=O)o3)c(F)c2)C(=O)O1 (stereo partly drawn) [Compound No. 72, (S)-N-[[3-[3-Fluoro[4-[3-(1α,5α,6α)-6-[N-(5-formyl-2-furylmethyl)-N-methyl]-amino]-3-azabicyclo-[3.1.0]hexane]phenyl]-2-oxo-5-oxazolidinyl]methyl]acetamide] | 4 µg/mL (≈ 8.5 µM) | 4 µg/mL (≈ 8.5 µM) | 0.25 µg/mL (≈ 0.531 µM) | 8 µg/mL (≈ 17 µM) |  | 4 µg/mL (≈ 8.5 µM) | 4 µg/mL (≈ 8.5 µM) | 8 µg/mL (≈ 17 µM) | 8 µg/mL (≈ 17 µM) |
| CC(=O)NC[C@H]1CN(c2ccc(N3CC4C(C3)C4N(C)C(=O)c3ccsc3)c(F)c2)C(=O)O1 (stereo partly drawn) [Compound No. 73, (S)-N-[[3-[3-Fluoro[4-[3-(1α,5α,6α)-6-[N-(3-thienoyl)-N-methyl]amino]-3-aza-bicyclo[3.1.0]hexane]phenyl]-2-oxo-5-oxazolidinyl]methyl]acetamide] | 8 µg/mL (≈ 16.9 µM) | 8 µg/mL (≈ 16.9 µM) | 1 µg/mL (≈ 2.12 µM) | 8 µg/mL (≈ 16.9 µM) |  | 4 µg/mL (≈ 8.46 µM) | 8 µg/mL (≈ 16.9 µM) | 8 µg/mL (≈ 16.9 µM) | 8 µg/mL (≈ 16.9 µM) |
| CC(=O)NC[C@H]1CN(c2ccc(N3CCN(C(=O)c4ccco4)CC3)c(F)c2)C(=O)O1 [Compound No. 01, (S)-N-[[3-[3-Fluoro-4-[N-1-[4-(2-furoyl)piperazinyl]]phenyl]-2-oxo-5-oxazolidinyl]methyl]acetamide] | 4 µg/mL (≈ 9.29 µM) | 1 µg/mL (≈ 2.32 µM) | 1 µg/mL (≈ 2.32 µM) | 2 µg/mL (≈ 4.65 µM) |  | 2 µg/mL (≈ 4.65 µM) | 2 µg/mL (≈ 4.65 µM) | 2 µg/mL (≈ 4.65 µM) | 2 µg/mL (≈ 4.65 µM) |
| CC(=O)NC[C@H]1CN(c2ccc(N3CCN(Cc4ccc([N+](=O)[O-])o4)CC3)c(F)c2)C(=O)O1.O=C(O)CC(O)(CC(=O)O)C(=O)O [Compound No. 17] | 2 µg/mL | 1 µg/mL | 1 µg/mL | 2 µg/mL |  | 2 µg/mL | 2 µg/mL | 4 µg/mL | 2 µg/mL |
| COC(=O)Cc1ccc(NC(=O)ON=Cc2ccc(CN3CCN(c4ccc(N5C[C@H](CNC(C)=O)OC5=O)cc4F)CC3)o2)cc1 [Compound No. 61] | 8 µg/mL (≈ 12.3 µM) | 8 µg/mL (≈ 12.3 µM) | 8 µg/mL (≈ 12.3 µM) | 8 µg/mL (≈ 12.3 µM) |  | 8 µg/mL (≈ 12.3 µM) | 8 µg/mL (≈ 12.3 µM) | 8 µg/mL (≈ 12.3 µM) | 8 µg/mL (≈ 12.3 µM) |
| CC(=O)NC[C@H]1CN(c2ccc(N3CCC(N(C)Cc4ccc([N+](=O)[O-])s4)CC3)c(F)c2)C(=O)O1 [Compound No. 51, (S)-N-[[3-[4-[4-(N-methyl-N-2-thienyl(5-nitro)methyl)aminopiperidine-1-yl]-3-fluorophenyl]-2-oxo-oxazolidin-5-yl]methyl]acetamide] | 1 µg/mL (≈ 1.98 µM) | 2 µg/mL (≈ 3.96 µM) | 0.5 µg/mL (≈ 0.989 µM) | 2 µg/mL (≈ 3.96 µM) | 1 µg/mL (≈ 1.98 µM) |  | 1 µg/mL (≈ 1.98 µM) | 4 µg/mL (≈ 7.91 µM) | 4 µg/mL (≈ 7.91 µM) |
| CC(=O)NC[C@H]1CN(c2ccc(N3CCN(Cc4ccc(Cl)s4)CC3)c(F)c2)C(=O)O1 [Compound No. 10, (S)-N[[3-[3-Fluoro-4-[N-1[4-{2-thienyl(5-chloro)methyl}]piperazinyl]phenyl]2-oxo-5-oxazolidinyl]methyl]acetamide] | 4 µg/mL (≈ 8.57 µM) | 8 µg/mL (≈ 17.1 µM) | 1 µg/mL (≈ 2.14 µM) | 8 µg/mL (≈ 17.1 µM) |  | 4 µg/mL (≈ 8.57 µM) | 4 µg/mL (≈ 8.57 µM) | 4 µg/mL (≈ 8.57 µM) | 8 µg/mL (≈ 17.1 µM) |
| CC(=O)NC[C@H]1CN(c2ccc(N3CCN(C(=O)c4ccc(CCl)o4)CC3)c(F)c2)C(=O)O1 [Compound No. 05, (S)-N-[[3-Fluoro-4-[N-1[4-(5-chloromethyl-2-furoyl)piperazinyl]phenyl]-2-oxo-5-oxazolidinyl]methyl]acetamide] | 4 µg/mL (≈ 8.35 µM) | 4 µg/mL (≈ 8.35 µM) | 4 µg/mL (≈ 8.35 µM) | 16 µg/mL (≈ 33.4 µM) |  | 4 µg/mL (≈ 8.35 µM) | 4 µg/mL (≈ 8.35 µM) | 8 µg/mL (≈ 16.7 µM) | 8 µg/mL (≈ 16.7 µM) |
| CC(=O)NC[C@H]1CN(c2ccc(N3CCN(Cc4ccc([N+](=O)[O-])s4)CC3)c(F)c2)C(=O)O1 [Compound No. 23, (S)-N[[3-[3-Fluoro-4-[N-1[4-(2-thienyl(5-nitro)methyl}]piperazinyl]phenyl]2-oxo-5-oxazolidinyl]methyl]acetamide] | 8 µg/mL (≈ 16.8 µM) | 8 µg/mL (≈ 16.8 µM) | 1 µg/mL (≈ 2.09 µM) | 8 µg/mL (≈ 16.8 µM) |  | 8 µg/mL (≈ 16.8 µM) | 8 µg/mL (≈ 16.8 µM) | 8 µg/mL (≈ 16.8 µM) | 8 µg/mL (≈ 16.8 µM) |
